# Assay results from PMC4939481 (Bioorganic & medicinal chemistry letters, 2016).
# Experiments:
# [1] = target: T1, recombinant human TDP2 (hTDP2) (Homo sapiens, UniProt O95551); assay: Inhibition of recombinant human TDP2; assay type: biochemical, H. sapiens
# T1 sequence (O95551 1-362): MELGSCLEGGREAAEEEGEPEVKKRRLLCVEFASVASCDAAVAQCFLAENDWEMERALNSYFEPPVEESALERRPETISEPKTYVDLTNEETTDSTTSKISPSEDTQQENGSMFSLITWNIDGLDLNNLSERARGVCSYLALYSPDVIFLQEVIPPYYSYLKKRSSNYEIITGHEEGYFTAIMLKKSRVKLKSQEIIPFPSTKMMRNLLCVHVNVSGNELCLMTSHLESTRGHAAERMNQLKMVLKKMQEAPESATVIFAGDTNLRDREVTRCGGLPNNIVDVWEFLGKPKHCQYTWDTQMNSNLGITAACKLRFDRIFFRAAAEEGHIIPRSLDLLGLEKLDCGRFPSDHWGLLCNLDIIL
# [2] = target: recombinant human TDP1 (hTDP1) (Homo sapiens, UniProt Q9NUW8); assay: Inhibition of recombinant human TDP1; assay type: biochemical, H. sapiens
# recombinant human TDP1 (hTDP1), sequence (Q9NUW8 whole entry): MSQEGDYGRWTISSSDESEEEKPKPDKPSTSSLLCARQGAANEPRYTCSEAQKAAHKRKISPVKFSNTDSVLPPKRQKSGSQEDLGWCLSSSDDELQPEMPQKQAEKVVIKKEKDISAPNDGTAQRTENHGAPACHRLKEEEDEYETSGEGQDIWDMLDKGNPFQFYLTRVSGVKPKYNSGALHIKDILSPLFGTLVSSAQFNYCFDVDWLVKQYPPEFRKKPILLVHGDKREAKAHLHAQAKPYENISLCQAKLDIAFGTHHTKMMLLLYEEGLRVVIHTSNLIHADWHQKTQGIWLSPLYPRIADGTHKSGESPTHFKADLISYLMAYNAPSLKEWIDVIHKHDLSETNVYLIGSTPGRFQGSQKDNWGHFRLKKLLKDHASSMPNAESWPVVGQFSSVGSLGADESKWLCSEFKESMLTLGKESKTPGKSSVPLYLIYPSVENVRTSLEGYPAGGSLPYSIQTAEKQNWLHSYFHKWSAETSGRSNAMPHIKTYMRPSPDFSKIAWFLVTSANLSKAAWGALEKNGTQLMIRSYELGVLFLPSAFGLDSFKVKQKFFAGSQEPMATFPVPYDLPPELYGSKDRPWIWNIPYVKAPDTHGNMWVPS
IC50 [2],SMILES,IC50 [1]
> 200 µM,COc1ccc(CC2C(=O)N(c3ccc([N+](=O)[O-])cc3)N=C2C(=O)O)cc1Oc1ccc(F)cc1 (stereo not drawn) [Compound 21],20 µM
,O=C(Cc1ccccc1)NC(CSSCC(NC(=O)Cc1ccccc1)C(=O)O)C(=O)O (stereo not drawn) [NSC3198],9.5 µM
